Experimental data from PMC7846937 (Bioorganic chemistry, 2020).

What follows are molecules tested against hCA II (Homo sapiens, UniProt P00918) (assay: stopped-flow CO2 hydration assay).
Type: biochemical

Ki [nM]	Compound
8.5	CCc1cc(C)cc(CC)[n+]1-c1cccc(S(N)(=O)=O)c1 [19b, 2,6-Diethyl-4-methyl-1-(3-sulfamoylphenyl)pyridinium hexafluorophosphate]
7.8	CCCc1cc(C)cc(CCC)[n+]1-c1cccc(S(N)(=O)=O)c1 [19c, 4-Methyl-2,6-di-n-propyl-1-(3-sulfamoylphenyl)pyridinium hexafluorophosphate]
9.6	Cc1cc(C(C)C)[n+](-c2cccc(S(N)(=O)=O)c2)c(C(C)C)c1 [19d, 2,6-Diisopropyl-4-methyl-1-(3-sulfamoylphenyl)pyridinium hexafluorophosphate]
58.1	CCCCc1cc(C)cc(CCCC)[n+]1-c1cccc(S(N)(=O)=O)c1 [19e, 2,6-Di-n-butyl-4-methyl-1-(3-sulfamoylphenyl)pyridinium hexafluorophosphate]
12.9	CCc1cc(C)cc(C)[n+]1-c1cccc(S(N)(=O)=O)c1 [19f, 2-Ethyl-4,6-dimethyl-1-(3-sulfamoylphenyl)pyridinium hexafluorophosphate]
7.2	CCCc1cc(C)cc(C)[n+]1-c1cccc(S(N)(=O)=O)c1 [19g, 2,4-Dimethyl-6-n-propyl-1-(3-sulfamoylphenyl)pyridinium hexafluorophosphate]
10.4	Cc1cc(C)[n+](-c2cccc(S(N)(=O)=O)c2)c(C(C)C)c1 [19h, 2-Isopropyl-4,6-dimethyl-1-(3-sulfamoylphenyl)pyridinium hexafluorophosphate]
6.8	CCCCc1cc(C)cc(C)[n+]1-c1cccc(S(N)(=O)=O)c1 [19i, 2-n-Butyl-4,6-dimethyl-1-(3-sulfamoylphenyl)pyridinium hexafluorophosphate]
1.2	Cc1cc(-c2ccccc2)cc(C)[n+]1-c1cccc(S(N)(=O)=O)c1 [19j, 2,6-Dimethyl-4-phenyl-1-(3-sulfamoyl-phenyl)-pyridinium hexafluorophosphate]
10.2	CCc1cc(-c2ccccc2)cc(CC)[n+]1-c1cccc(S(N)(=O)=O)c1 [19k, 2,6-Diethyl-4-phenyl-1-(3-sulfamoyl-phenyl)-pyridinium hexafluorophosphate]
18	CCCc1cc(-c2ccccc2)cc(CCC)[n+]1-c1cccc(S(N)(=O)=O)c1 [19l, 2,6-Di-n-propyl-4-phenyl-1-(3-sulfamoyl-phenyl)-pyridinium hexafluorophosphate]
9.3	CC(C)c1cc(-c2ccccc2)cc(C(C)C)[n+]1-c1cccc(S(N)(=O)=O)c1 [19m, 2,6-Diisopropyl-4-phenyl-1-(3-sulfamoylphenyl)pyridinium hexafluorophosphate]
49.3	CCCCc1cc(-c2ccccc2)cc(CCCC)[n+]1-c1cccc(S(N)(=O)=O)c1 [19n, 2,6-Di-n-butyl-4-phenyl-1-(3-sulfamoyl-phenyl)-pyridinium hexafluorophosphate]
3.4	Cc1cc(-c2ccccc2)cc(-c2ccccc2)[n+]1-c1cccc(S(N)(=O)=O)c1 [19o, 2-Methyl-4,6-diphenyl-1-(3-sulfamoyl-phenyl)-pyridinium hexafluorophosphate]
4	CCc1cc(-c2ccccc2)cc(-c2ccccc2)[n+]1-c1cccc(S(N)(=O)=O)c1 [19p, 2-Ethyl-4,6-diphenyl-1-(3-sulfamoyl-phenyl)-pyridinium hexafluorophosphate]
43.9	CCCCc1cc(-c2ccccc2)cc(-c2ccccc2)[n+]1-c1cccc(S(N)(=O)=O)c1 [19s, 2-n-Butyl-4,6-diphenyl-1-(3-sulfamoyl-phenyl)-pyridinium hexafluorophosphate]
2.6	Cc1cc(C)[n+](-c2cccc(S(N)(=O)=O)c2)c(C)c1C [19t, 2,3,4,6-Tetramethyl-1-(3-sulfamoylphenyl)pyridinium hexafluorophosphate]
39.8	Cc1c2cc(c(C)[n+]1-c1cccc(S(N)(=O)=O)c1)CCCCCCCCC2 [19u, 2,6-Dimethyl-3,5-(1,9-nonane-diyl)-1-(3-sulfamoyl-phenyl)pyridinium hexafluorophosphate]
8.8	Cc1cc(C)[n+](-c2cccc(S(N)(=O)=O)c2)c(-c2ccccc2)c1 [19v, 2,4-Dimethyl-6-phenyl-1-(3-sulfamoylphenyl)pyridinium hexafluorophosphate]
6.7	Cc1cc(-c2ccccc2)[n+](-c2cccc(S(N)(=O)=O)c2)c(-c2ccccc2)c1 [19w, 4-Methyl-2,6-diphenyl-1-(3-sulfamoylphenyl)pyridinium hexafluorophosphate]
13	NS(=O)(=O)c1cccc(-[n+]2c(-c3ccccc3)cc(-c3ccccc3)cc2-c2ccccc2)c1 [19x, 2,4,6-Triphenyl-1-(3-sulfamoylphenyl)pyridinium hexafluorophosphate]

What follows are molecules tested against hCA I (Homo sapiens, UniProt P00915) (assay: stopped-flow CO2 hydration assay).
Type: biochemical

hCA I, sequence (P00915 2-261): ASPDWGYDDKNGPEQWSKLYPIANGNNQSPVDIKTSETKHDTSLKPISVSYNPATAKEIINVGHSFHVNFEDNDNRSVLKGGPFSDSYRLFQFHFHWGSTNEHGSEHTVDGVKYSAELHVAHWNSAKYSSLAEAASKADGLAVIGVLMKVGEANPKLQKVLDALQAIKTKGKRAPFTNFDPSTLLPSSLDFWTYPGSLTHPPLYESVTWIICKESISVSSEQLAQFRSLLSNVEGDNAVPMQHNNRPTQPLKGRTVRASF

Ki [nM]	Compound
82.1	Cc1cc(C)[n+](-c2cccc(S(N)(=O)=O)c2)c(C)c1 [19a, 2,4,6-Trimethyl-1-(3-sulfamoylphenyl)pyridinium hexafluorophosphate]
86.3	CCc1cc(C)cc(CC)[n+]1-c1cccc(S(N)(=O)=O)c1 [19b, 2,6-Diethyl-4-methyl-1-(3-sulfamoylphenyl)pyridinium hexafluorophosphate]
84.5	CCCc1cc(C)cc(CCC)[n+]1-c1cccc(S(N)(=O)=O)c1 [19c, 4-Methyl-2,6-di-n-propyl-1-(3-sulfamoylphenyl)pyridinium hexafluorophosphate]
33.8	Cc1cc(C(C)C)[n+](-c2cccc(S(N)(=O)=O)c2)c(C(C)C)c1 [19d, 2,6-Diisopropyl-4-methyl-1-(3-sulfamoylphenyl)pyridinium hexafluorophosphate]
462	CCCCc1cc(C)cc(CCCC)[n+]1-c1cccc(S(N)(=O)=O)c1 [19e, 2,6-Di-n-butyl-4-methyl-1-(3-sulfamoylphenyl)pyridinium hexafluorophosphate]
63.6	CCc1cc(C)cc(C)[n+]1-c1cccc(S(N)(=O)=O)c1 [19f, 2-Ethyl-4,6-dimethyl-1-(3-sulfamoylphenyl)pyridinium hexafluorophosphate]
70.1	CCCc1cc(C)cc(C)[n+]1-c1cccc(S(N)(=O)=O)c1 [19g, 2,4-Dimethyl-6-n-propyl-1-(3-sulfamoylphenyl)pyridinium hexafluorophosphate]
60.7	Cc1cc(C)[n+](-c2cccc(S(N)(=O)=O)c2)c(C(C)C)c1 [19h, 2-Isopropyl-4,6-dimethyl-1-(3-sulfamoylphenyl)pyridinium hexafluorophosphate]
65.1	CCCCc1cc(C)cc(C)[n+]1-c1cccc(S(N)(=O)=O)c1 [19i, 2-n-Butyl-4,6-dimethyl-1-(3-sulfamoylphenyl)pyridinium hexafluorophosphate]
65.3	Cc1cc(-c2ccccc2)cc(C)[n+]1-c1cccc(S(N)(=O)=O)c1 [19j, 2,6-Dimethyl-4-phenyl-1-(3-sulfamoyl-phenyl)-pyridinium hexafluorophosphate]
71.6	CCc1cc(-c2ccccc2)cc(CC)[n+]1-c1cccc(S(N)(=O)=O)c1 [19k, 2,6-Diethyl-4-phenyl-1-(3-sulfamoyl-phenyl)-pyridinium hexafluorophosphate]
75.8	CCCc1cc(-c2ccccc2)cc(CCC)[n+]1-c1cccc(S(N)(=O)=O)c1 [19l, 2,6-Di-n-propyl-4-phenyl-1-(3-sulfamoyl-phenyl)-pyridinium hexafluorophosphate]
41.8	CC(C)c1cc(-c2ccccc2)cc(C(C)C)[n+]1-c1cccc(S(N)(=O)=O)c1 [19m, 2,6-Diisopropyl-4-phenyl-1-(3-sulfamoylphenyl)pyridinium hexafluorophosphate]
433	CCCCc1cc(-c2ccccc2)cc(CCCC)[n+]1-c1cccc(S(N)(=O)=O)c1 [19n, 2,6-Di-n-butyl-4-phenyl-1-(3-sulfamoyl-phenyl)-pyridinium hexafluorophosphate]
8.5	Cc1cc(-c2ccccc2)cc(-c2ccccc2)[n+]1-c1cccc(S(N)(=O)=O)c1 [19o, 2-Methyl-4,6-diphenyl-1-(3-sulfamoyl-phenyl)-pyridinium hexafluorophosphate]
18	CCc1cc(-c2ccccc2)cc(-c2ccccc2)[n+]1-c1cccc(S(N)(=O)=O)c1 [19p, 2-Ethyl-4,6-diphenyl-1-(3-sulfamoyl-phenyl)-pyridinium hexafluorophosphate]
137	CCCCc1cc(-c2ccccc2)cc(-c2ccccc2)[n+]1-c1cccc(S(N)(=O)=O)c1 [19s, 2-n-Butyl-4,6-diphenyl-1-(3-sulfamoyl-phenyl)-pyridinium hexafluorophosphate]
54.9	Cc1cc(C)[n+](-c2cccc(S(N)(=O)=O)c2)c(C)c1C [19t, 2,3,4,6-Tetramethyl-1-(3-sulfamoylphenyl)pyridinium hexafluorophosphate]
256	Cc1c2cc(c(C)[n+]1-c1cccc(S(N)(=O)=O)c1)CCCCCCCCC2 [19u, 2,6-Dimethyl-3,5-(1,9-nonane-diyl)-1-(3-sulfamoyl-phenyl)pyridinium hexafluorophosphate]
72.3	Cc1cc(C)[n+](-c2cccc(S(N)(=O)=O)c2)c(-c2ccccc2)c1 [19v, 2,4-Dimethyl-6-phenyl-1-(3-sulfamoylphenyl)pyridinium hexafluorophosphate]
19.7	Cc1cc(-c2ccccc2)[n+](-c2cccc(S(N)(=O)=O)c2)c(-c2ccccc2)c1 [19w, 4-Methyl-2,6-diphenyl-1-(3-sulfamoylphenyl)pyridinium hexafluorophosphate]
58	NS(=O)(=O)c1cccc(-[n+]2c(-c3ccccc3)cc(-c3ccccc3)cc2-c2ccccc2)c1 [19x, 2,4,6-Triphenyl-1-(3-sulfamoylphenyl)pyridinium hexafluorophosphate]

These molecules were tested against hCA XII (Homo sapiens, UniProt O43570) (assay: stopped-flow CO2 hydration assay).
Type: biochemical

hCA XII, sequence (O43570 30-289 limits assumed): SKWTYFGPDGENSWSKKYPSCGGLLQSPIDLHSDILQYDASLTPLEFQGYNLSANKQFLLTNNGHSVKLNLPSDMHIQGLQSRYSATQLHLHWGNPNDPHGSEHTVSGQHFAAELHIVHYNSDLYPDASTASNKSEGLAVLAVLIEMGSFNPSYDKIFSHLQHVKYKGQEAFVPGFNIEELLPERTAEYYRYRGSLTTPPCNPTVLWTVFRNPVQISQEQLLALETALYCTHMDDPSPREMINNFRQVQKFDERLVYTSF

Ki [nM]	Compound
4	CCc1cc(C)cc(CC)[n+]1-c1cccc(S(N)(=O)=O)c1 [19b, 2,6-Diethyl-4-methyl-1-(3-sulfamoylphenyl)pyridinium hexafluorophosphate]
3.6	CCCc1cc(C)cc(CCC)[n+]1-c1cccc(S(N)(=O)=O)c1 [19c, 4-Methyl-2,6-di-n-propyl-1-(3-sulfamoylphenyl)pyridinium hexafluorophosphate]
5.5	Cc1cc(C(C)C)[n+](-c2cccc(S(N)(=O)=O)c2)c(C(C)C)c1 [19d, 2,6-Diisopropyl-4-methyl-1-(3-sulfamoylphenyl)pyridinium hexafluorophosphate]
51.5	CCCCc1cc(C)cc(CCCC)[n+]1-c1cccc(S(N)(=O)=O)c1 [19e, 2,6-Di-n-butyl-4-methyl-1-(3-sulfamoylphenyl)pyridinium hexafluorophosphate]
3.7	CCc1cc(C)cc(C)[n+]1-c1cccc(S(N)(=O)=O)c1 [19f, 2-Ethyl-4,6-dimethyl-1-(3-sulfamoylphenyl)pyridinium hexafluorophosphate]
5.4	CCCc1cc(C)cc(C)[n+]1-c1cccc(S(N)(=O)=O)c1 [19g, 2,4-Dimethyl-6-n-propyl-1-(3-sulfamoylphenyl)pyridinium hexafluorophosphate]
7.4	Cc1cc(C)[n+](-c2cccc(S(N)(=O)=O)c2)c(C(C)C)c1 [19h, 2-Isopropyl-4,6-dimethyl-1-(3-sulfamoylphenyl)pyridinium hexafluorophosphate]
4	CCCCc1cc(C)cc(C)[n+]1-c1cccc(S(N)(=O)=O)c1 [19i, 2-n-Butyl-4,6-dimethyl-1-(3-sulfamoylphenyl)pyridinium hexafluorophosphate]
0.87	Cc1cc(-c2ccccc2)cc(C)[n+]1-c1cccc(S(N)(=O)=O)c1 [19j, 2,6-Dimethyl-4-phenyl-1-(3-sulfamoyl-phenyl)-pyridinium hexafluorophosphate]
12.1	CCc1cc(-c2ccccc2)cc(CC)[n+]1-c1cccc(S(N)(=O)=O)c1 [19k, 2,6-Diethyl-4-phenyl-1-(3-sulfamoyl-phenyl)-pyridinium hexafluorophosphate]
21.5	CCCc1cc(-c2ccccc2)cc(CCC)[n+]1-c1cccc(S(N)(=O)=O)c1 [19l, 2,6-Di-n-propyl-4-phenyl-1-(3-sulfamoyl-phenyl)-pyridinium hexafluorophosphate]
5.8	CC(C)c1cc(-c2ccccc2)cc(C(C)C)[n+]1-c1cccc(S(N)(=O)=O)c1 [19m, 2,6-Diisopropyl-4-phenyl-1-(3-sulfamoylphenyl)pyridinium hexafluorophosphate]
40.2	CCCCc1cc(-c2ccccc2)cc(CCCC)[n+]1-c1cccc(S(N)(=O)=O)c1 [19n, 2,6-Di-n-butyl-4-phenyl-1-(3-sulfamoyl-phenyl)-pyridinium hexafluorophosphate]
0.96	Cc1cc(-c2ccccc2)cc(-c2ccccc2)[n+]1-c1cccc(S(N)(=O)=O)c1 [19o, 2-Methyl-4,6-diphenyl-1-(3-sulfamoyl-phenyl)-pyridinium hexafluorophosphate]
1.4	CCc1cc(-c2ccccc2)cc(-c2ccccc2)[n+]1-c1cccc(S(N)(=O)=O)c1 [19p, 2-Ethyl-4,6-diphenyl-1-(3-sulfamoyl-phenyl)-pyridinium hexafluorophosphate]
35.2	CCCCc1cc(-c2ccccc2)cc(-c2ccccc2)[n+]1-c1cccc(S(N)(=O)=O)c1 [19s, 2-n-Butyl-4,6-diphenyl-1-(3-sulfamoyl-phenyl)-pyridinium hexafluorophosphate]
3.4	Cc1cc(C)[n+](-c2cccc(S(N)(=O)=O)c2)c(C)c1C [19t, 2,3,4,6-Tetramethyl-1-(3-sulfamoylphenyl)pyridinium hexafluorophosphate]
25.1	Cc1c2cc(c(C)[n+]1-c1cccc(S(N)(=O)=O)c1)CCCCCCCCC2 [19u, 2,6-Dimethyl-3,5-(1,9-nonane-diyl)-1-(3-sulfamoyl-phenyl)pyridinium hexafluorophosphate]
4.7	Cc1cc(C)[n+](-c2cccc(S(N)(=O)=O)c2)c(-c2ccccc2)c1 [19v, 2,4-Dimethyl-6-phenyl-1-(3-sulfamoylphenyl)pyridinium hexafluorophosphate]
8.8	Cc1cc(-c2ccccc2)[n+](-c2cccc(S(N)(=O)=O)c2)c(-c2ccccc2)c1 [19w, 4-Methyl-2,6-diphenyl-1-(3-sulfamoylphenyl)pyridinium hexafluorophosphate]
21.7	NS(=O)(=O)c1cccc(-[n+]2c(-c3ccccc3)cc(-c3ccccc3)cc2-c2ccccc2)c1 [19x, 2,4,6-Triphenyl-1-(3-sulfamoylphenyl)pyridinium hexafluorophosphate]
